Source: US8022225B2, “Triazole derivative” (Taisho Pharmaceutical Co., Ltd, priority 2004, dated 2011)

What was measured:
human Edg-1(S1P1) [1] = target: T1, human Edg-1(S1P1) (Homo sapiens, UniProt P21453); assay: Cell system binding test: inhibition of [3H]-S1P binding to Edg-1(S1P1) gene transferred HEK-293 cells; details: [3H]-S1P 10 nM
T1 construct: expressed in transfected cells; host or cells: HEK-293

human Edg-1(S1P1) [2] = target: T1, human Edg-1(S1P1); assay: Membrane system binding test: inhibition of [33P]-S1P binding to the membrane fraction of Edg-1(S1P1) gene transferred HEK-293 cells; details: [33P]-S1P 0.1 nM
Method in brief: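 Compound tested at 10^−5 M final (0.1% DMSO) for blocking 0.1 nM [^33P]-S1P binding to S1P1-expressing HEK-293 membranes, 30 °C, 1 h. Radioactivity retained on filters was counted, and percent inhibition derived relative to vehicle binding, correcting for the background of non-transfected HEK-293 membranes.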

[3] = 10 μM compound, read-out: Cell system binding test % inhibition (10 μM)
[4] = 10 μM compound, membrane fraction of Edg-1(S1P1) gene transferred HEK-293 cells, read-out: Membrane system binding test % inhibition (10 μM)
[5] = 10 μM compound, membrane fraction of Edg-1(S1P1) gene transferred HEK-293 cells
[6] = test compound 10^-5 M, 1 hour, read-out: Edg-1(S1P1) binding inhibition rate (cell system binding test)
[7] = test compound 10^-5 M, 1 hour at 30° C., HEK-293 membrane fraction, read-out: Edg-1(S1P1) binding inhibition rate (membrane system binding test)

T1 sequence (P21453 whole entry): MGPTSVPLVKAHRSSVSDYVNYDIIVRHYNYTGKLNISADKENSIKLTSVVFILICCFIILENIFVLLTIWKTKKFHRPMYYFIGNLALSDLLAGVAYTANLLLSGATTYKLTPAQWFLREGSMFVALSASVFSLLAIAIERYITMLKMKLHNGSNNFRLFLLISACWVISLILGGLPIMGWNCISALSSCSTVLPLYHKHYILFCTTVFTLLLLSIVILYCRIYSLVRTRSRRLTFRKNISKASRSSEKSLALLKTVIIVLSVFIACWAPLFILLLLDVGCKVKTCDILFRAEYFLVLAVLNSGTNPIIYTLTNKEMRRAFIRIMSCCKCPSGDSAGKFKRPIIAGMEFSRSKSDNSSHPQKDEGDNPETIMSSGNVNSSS

| Compound | inhibition at 10 µM (human Edg-1(S1P1) [1]; [3]) | inhibition at 10 µM (human Edg-1(S1P1) [2]; [4]) | inhibition at 10 µM (human Edg-1(S1P1) [1]; [6]) | inhibition at 10 µM (human Edg-1(S1P1) [2]; [7]) | other results |
| --- | --- | --- | --- | --- | --- |
| CCOc1nnc([C@@H](C)NS(=O)(=O)c2ccc([N+](=O)[O-])cc2)n1CC [Compound 413] | 100% | 93.8% | – | – | – |
| CCOc1nnc([C@@H](C)NS(=O)(=O)c2cccc(C(F)(F)F)c2)n1CC [Compound 414] | 101% | 81% | – | – | – |
| CCOc1nnc([C@@H](C)NS(=O)(=O)c2cccc(OC)c2)n1CC [Compound 417] | 97.9% | 64.8% | – | – | – |
| CCOc1nnc([C@@H](C)NS(=O)(=O)c2ccc3c(c2)OCO3)n1CC [Compound 418] | 99.5% | 70.4% | – | – | – |
| CCn1c(OC)nnc1[C@@H](Cc1ccc(Cl)cc1)NS(=O)(=O)c1ccc(Cl)cc1 [Compound 426] | 95.7% | 101% | – | – | – |
| CCn1c(OC)nnc1[C@@H](C)NS(=O)(=O)c1cc2ccccc2o1 [Compound 427] | 97.5% | 67% | – | – | – |
| CCOc1nnc([C@@H](C)NS(=O)(=O)c2ccc(Br)c(C)c2)n1CC [Compound 428] | 101% | 99.2% | – | – | – |
| CCOc1nnc([C@@H](C)NS(=O)(=O)c2cccc(Cl)c2C)n1CC [Compound 430] | 97.9% | 89.2% | – | – | – |
| CCOc1nnc([C@@H](C)NS(=O)(=O)c2ccc(F)cc2)n1CC [Compound 436] | 94.5% | 49% | – | – | – |
| CCOc1nnc([C@@H](C)NS(=O)(=O)c2ccc(Br)c(C(F)(F)F)c2)n1CC [Compound 437] | 101% | 93.9% | – | – | – |
| CCn1c(OC)nnc1[C@@H](C)NS(=O)(=O)c1ccc2[nH]c(=O)oc2c1 [Compound 443] | 31.3% | 43% | – | – | – |
| CCn1c(OC)nnc1[C@@H](C)NS(=O)(=O)c1ccc(NC(C)=O)cc1 [Compound 444] | 18.2% | 60.9% | – | – | – |
| CCOc1nnc([C@@H](C)NS(=O)(=O)c2cccc(OC)c2)n1CC [Compound 447] | – | – | – | – | Cell system binding test % inhibition (10 μM) (human Edg-1(S1P1) [1]; 10 μM compound): 89.2%; Membrane system binding test % inhibition (10 μM) (human Edg-1(S1P1) [2]; [5]): 72.2% |
| CCn1c(OC)nnc1[C@@H](C)NS(=O)(=O)c1ccc(Br)c(Br)c1 [Compound 448] | – | – | – | – | Cell system binding test % inhibition (10 μM) (human Edg-1(S1P1) [1]; 10 μM compound): 89.7%; Membrane system binding test % inhibition (10 μM) (human Edg-1(S1P1) [2]; [5]): 99.6% |
| CCn1c(OC)nnc1[C@@H](C)NS(=O)(=O)c1cc(F)c(Br)cc1F [Compound 449] | – | – | – | – | Cell system binding test % inhibition (10 μM) (human Edg-1(S1P1) [1]; 10 μM compound): 91.6%; Membrane system binding test % inhibition (10 μM) (human Edg-1(S1P1) [2]; [5]): 65.9% |
| CCOc1nnc([C@@H](C)NS(=O)(=O)c2cc(F)c(Br)cc2F)n1CC [Compound 451] | 94.2% | 62.7% | – | – | – |
| CCn1c(OC(C)C)nnc1[C@@H](C)NS(=O)(=O)c1ccc(Br)s1 [Compound 452] | – | – | 91.8% | 89.7% | – |

| Compound | inhibition at 10 µM (human Edg-1(S1P1) [1]; [3]) | inhibition at 10 µM (human Edg-1(S1P1) [2]; [4]) | inhibition at 10 µM (human Edg-1(S1P1) [1]; [6]) | inhibition at 10 µM (human Edg-1(S1P1) [2]; [7]) | other results |
| --- | --- | --- | --- | --- | --- |
| CCn1c(OC(C)C)nnc1[C@@H](C)NS(=O)(=O)c1ccc(Cl)c(Cl)c1 [Compound 453] | – | – | 89.4% | 97.1% | – |
| CCn1c(OC(C)C)nnc1[C@@H](C)NS(=O)(=O)c1ccc(C)c(Cl)c1 [Compound 454] | – | – | 91.7% | 92.6% | – |
| CCn1c(OC(C)C)nnc1[C@@H](C)NS(=O)(=O)c1ccc(Br)c(C)c1 [Compound 457] | – | – | 85.4% | 101% | – |
| CCn1c(OC(C)C)nnc1[C@@H](C)NS(=O)(=O)c1cc(F)c(F)c(F)c1 [Compound 458] | – | – | 86.5% | 91.9% | – |
| CCn1c(OC)nnc1[C@@H](COC)NS(=O)(=O)c1ccc(Cl)cc1 [Compound 459] | – | – | 89.9% | 68.5% | – |
| CCn1c(OC(C)C)nnc1[C@@H](C)NS(=O)(=O)c1cccc(Br)c1 [Compound 460] | – | – | 94.5% | 76.3% | – |
| CCn1c(OC(C)C)nnc1[C@@H](C)NS(=O)(=O)c1ccc(C)c(F)c1 [Compound 463] | – | – | 88.7% | 97.2% | – |
| CCn1c(OC(C)C)nnc1[C@@H](C)NS(=O)(=O)c1ccc2ccccc2c1 [Compound 464] | – | – | 99.6% | 98.3% | – |
| CCn1c(OC(C)C)nnc1[C@@H](C)NS(=O)(=O)c1cccc(OC(F)F)c1 [Compound 466] | – | – | 99.3% | 88.8% | – |
| CCn1c(OC(C)C)nnc1[C@@H](C)NS(=O)(=O)c1cccc(C)c1 [Compound 470] | – | – | 91.6% | 80.8% | – |
| CCn1c(OC(C)C)nnc1[C@@H](C)NS(=O)(=O)c1cccc(Cl)c1C [Compound 471] | – | – | 96.5% | 91% | – |
| CCn1c(OC(C)C)nnc1[C@@H](C)NS(=O)(=O)c1ccc2nsnc2c1 [Compound 472] | – | – | 102% | 94.4% | – |
| CCn1c(OC(C)C)nnc1[C@@H](C)NS(=O)(=O)c1cc(F)cc(F)c1 [Compound 474] | – | – | 93% | 79% | – |
| CCn1c(OC(C)C)nnc1[C@@H](C)NS(=O)(=O)c1ccc(I)cc1 [Compound 476] | – | – | 100% | 86.1% | – |
| CCn1c(OC(C)C)nnc1[C@@H](C)NS(=O)(=O)c1ccc(F)cc1 [Compound 477] | – | – | 92% | 77.1% | – |
| CCn1c(OC(C)C)nnc1[C@@H](C)NS(=O)(=O)c1ccc(Br)c(C(F)(F)F)c1 [Compound 478] | – | – | 104% | 86% | – |
| CCn1c(OC(C)C)nnc1[C@@H](C)NS(=O)(=O)c1cccc(Cl)c1 [Compound 479] | – | – | 93.3% | 83% | – |

Further lines, with some results ahead:

| inhibition at 10 µM (human Edg-1(S1P1) [1]; [3]) | inhibition at 10 µM (human Edg-1(S1P1) [2]; [4]) | inhibition at 10 µM (human Edg-1(S1P1) [1]; [6]) | inhibition at 10 µM (human Edg-1(S1P1) [2]; [7]) | Compound | other results |
| --- | --- | --- | --- | --- | --- |
| 99.6% | 75.1% | – | – | CCOc1nnc([C@@H](C)NS(=O)(=O)c2cccc(OC(F)(F)F)c2)n1CC [Compound 415] | – |
| 100% | 77.7% | – | – | CCOc1nnc([C@@H](C)NS(=O)(=O)c2cccc(OC(F)F)c2)n1CC [Compound 416] | – |
| 93.3% | 50.1% | – | – | CCOc1nnc([C@@H](C)NS(=O)(=O)c2ccc(OC)cc2)n1CC [Compound 420] | – |
| 95.1% | 74.2% | – | – | CCOc1nnc([C@@H](C)NS(=O)(=O)c2ccc(C)cc2)n1CC [Compound 429] | – |
| 98% | 94.6% | – | – | CCOc1nnc([C@@H](C)NS(=O)(=O)c2ccc3nsnc3c2)n1CC [Compound 431] | – |
| 92.2% | 82.9% | – | – | CCOc1nnc([C@@H](C)NS(=O)(=O)c2ccc(C(F)(F)F)cc2)n1CC [Compound 432] | – |
| 93.8% | 70.2% | – | – | CCOc1nnc([C@@H](C)NS(=O)(=O)c2cc(F)cc(F)c2)n1CC [Compound 433] | – |
| 95.6% | 90.5% | – | – | CCOc1nnc([C@@H](C)NS(=O)(=O)c2cc(Cl)c(Cl)s2)n1CC [Compound 434] | – |
| 93.7% | 86.4% | – | – | CCOc1nnc([C@@H](C)NS(=O)(=O)c2ccc(I)cc2)n1CC [Compound 435] | – |
| 95% | 100% | – | – | CCn1c(OC)nnc1[C@@H](Cc1ccccc1Cl)NS(=O)(=O)c1ccc(Cl)cc1 [Compound 439] | – |
| 95.1% | 102% | – | – | CCn1c(OC)nnc1[C@@H](Cc1cccc(Cl)c1)NS(=O)(=O)c1ccc(Cl)cc1 [Compound 440] | – |
| 93% | 81.6% | – | – | CCOc1nnc([C@@H](C)NS(=O)(=O)c2cccc(Cl)c2)n1CC [Compound 445] | – |
| 91.4% | 72.5% | – | – | CCOc1nnc([C@@H](C)NS(=O)(=O)c2ccc(CC)cc2)n1CC [Compound 446] | – |
| 92.3% | 93.8% | – | – | CCOc1nnc([C@@H](C)NS(=O)(=O)c2cc(F)c(F)c(F)c2)n1CC [Compound 450] | – |
| – | – | 93.2% | 91.7% | CCn1c(OC(C)C)nnc1[C@@H](C)NS(=O)(=O)c1ccc(Br)c(F)c1 [Compound 455] | – |
| – | – | 87.4% | 89% | CCn1c(OC(C)C)nnc1[C@@H](C)NS(=O)(=O)c1ccc(F)c(Cl)c1 [Compound 456] | – |
| – | – | 87.9% | 89.5% | CCn1c(OC(C)C)nnc1[C@@H](C)NS(=O)(=O)c1ccc(Br)cc1 [Compound 461] | – |
| – | – | 83.5% | 92.1% | CCn1c(OC(C)C)nnc1[C@@H](C)NS(=O)(=O)c1ccc(C)c(C)c1 [Compound 462] | – |
| – | – | 97.9% | 88% | CCn1c(OC(C)C)nnc1[C@@H](C)NS(=O)(=O)c1ccc(F)c(F)c1 [Compound 465] | – |
| – | – | 100% | 98.6% | CCn1c(OC(C)C)nnc1[C@@H](C)NS(=O)(=O)c1ccc(Br)c(Br)c1 [Compound 467] | – |
| – | – | 96.9% | 75.8% | CCn1c(OC(C)C)nnc1[C@@H](C)NS(=O)(=O)c1cccc(C(F)(F)F)c1 [Compound 468] | – |
| – | – | 95.9% | 83.9% | CCn1c(OC(C)C)nnc1[C@@H](C)NS(=O)(=O)c1cccc(OC(F)(F)F)c1 [Compound 469] | – |
| – | – | 95.1% | 91.7% | CCn1c(OC(C)C)nnc1[C@@H](C)NS(=O)(=O)c1ccc(C(F)(F)F)cc1 [Compound 473] | – |
| – | – | 97.9% | 86.4% | CCn1c(OC(C)C)nnc1[C@@H](C)NS(=O)(=O)c1cc(Cl)c(Cl)s1 [Compound 475] | – |
